From ChEMBL document CHEMBL1124116 (J Med Chem, 1988) come the findings set out here.

For the assay, the target named is T1, Cholesterol side-chain cleavage enzyme, mitochondrial (Bos taurus, UniProt P00189).
T1 sequence (P00189 whole entry): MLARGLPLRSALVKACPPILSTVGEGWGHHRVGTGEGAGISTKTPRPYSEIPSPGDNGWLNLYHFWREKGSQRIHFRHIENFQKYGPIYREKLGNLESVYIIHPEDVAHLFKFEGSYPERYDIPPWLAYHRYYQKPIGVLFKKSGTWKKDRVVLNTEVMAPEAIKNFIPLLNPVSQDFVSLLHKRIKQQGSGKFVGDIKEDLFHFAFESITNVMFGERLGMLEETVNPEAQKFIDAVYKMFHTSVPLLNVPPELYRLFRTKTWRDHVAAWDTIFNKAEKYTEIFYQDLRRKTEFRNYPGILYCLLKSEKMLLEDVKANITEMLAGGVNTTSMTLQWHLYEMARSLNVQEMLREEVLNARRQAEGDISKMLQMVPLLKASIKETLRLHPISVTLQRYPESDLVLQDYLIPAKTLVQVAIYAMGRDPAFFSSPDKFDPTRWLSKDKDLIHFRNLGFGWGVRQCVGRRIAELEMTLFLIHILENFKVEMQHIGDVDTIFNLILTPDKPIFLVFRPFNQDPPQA
As to conditions: read-out: I50.

As for `CN1C(=O)C2CC2(c2ccc(N)cc2)C1=O` (stereo not drawn), the IC50 came to 460 µM.

`CC(C)(C)CN1C(=O)C2CC2(c2ccc(N)cc2)C1=O` (stereo not drawn): the IC50 was found to be 294 µM.

`CC(C)CN1C(=O)C2CC2(c2ccc(N)cc2)C1=O` (stereo not drawn): the IC50 is 310 µM.

With `C#CCN1C(=O)C2CC2(c2ccc(N)cc2)C1=O` (stereo not drawn), the IC50 was found to be 292 µM.

Take `CC(C)N1C(=O)C2CC2(c2ccc(N)cc2)C1=O` (stereo not drawn): the IC50 stood at 320 µM.

Take `Nc1ccc(C23CC2C(=O)N(Cc2ccccc2)C3=O)cc1` (stereo not drawn): the IC50 came out at 290 µM.

With `CCN1C(=O)C2CC2(c2ccc(N)cc2)C1=O` (stereo not drawn), the IC50 was 305 µM.

Consider `C=CCN1C(=O)C2CC2(c2ccc(N)cc2)C1=O` (stereo not drawn), for which the IC50 is 274 µM.
